In patent US20130137772A1, “HYDROXYPOLYAMINE SALTS” (priority 2011, published 2013):
Where “and” joins values, the source holds several entries; their conditions need not be identical. Equal values may be shown once.

Columns and labels:
[1] = mice, three weeks after a seven day schedule; cited from earlier work
[2] = Tissue distribution and metabolism: polyamine content of kidney, liver and pancreas via HPLC; assay type: in vivo, Female CD-1 mice; settings: DEHSPM 18.6 mg/kg/d IP x 5 d
Procedure: The tissue distribution and metabolism of DEHSPM, (HO)2DEHSPM HCl Salt and (HO)2DEHSPM Mesylate Salt in various organs were evaluated utilizing the following protocol:
Tissue Distribution and Metabolism of DEHSPM, (HO)2DEHSPM HCl Salt and (HO)2DEHSPM Mesylate Salt
• 1) DEHSPM, (HO)2DEHSPM HCl salt, and (HO)2DEHSPM mesylate salt were dissolved in sterile normal saline; the pH was not adjusted. • 2) Female CD-1 mice were given the drugs at equimolar dosages intraperitoneally once daily for 5 days. • 3) The animals, n=3-4 per group, were euthanized 4, 8, or 24 h post-last dose. • 4) The kidney, liver, and pancreas were removed and assessed for their polyamine content via HPLC analysis. • 5) The polyamine concentration data (mean±STD) are expressed as nmol/g wet weight of tissue. SPM, spermine; SPD, spermidine; PUT, putrescine; N.D., not determined. • 6) A one-tailed t test assuming unequal variance was performed on the tissue polyamine concentration data. A value of p<0.05 was considered significant.

Structure (SMILES): CCNCCCCNCCCCNCCCCNCC [DEHSPM, Diethylhomospermine, reference compound]
- drug administered remaining in the liver and kidney as drug or metabolites [1]: 35%
- drug remaining in the animal in the form of HSPM [1]: 90%
- DEHSPM concentration ([2]; kidney, 4 h post-last dose): 428 ± 95 nmol/g wet weight of tissue
- PUT concentration ([2]; kidney, 4 h post-last dose): 0 ± 0 nmol/g wet weight of tissue
- SPD concentration ([2]; kidney, 4 h post-last dose): 270 ± 61 nmol/g wet weight of tissue
- SPM concentration ([2]; kidney, 4 h post-last dose): 243 ± 49 nmol/g wet weight of tissue
- DEHSPM concentration ([2]; kidney, 8 h post-last dose): 425 ± 82 nmol/g wet weight of tissue
- PUT concentration ([2]; kidney, 8 h post-last dose): 0 ± 0 nmol/g wet weight of tissue
- SPD concentration ([2]; kidney, 8 h post-last dose): 159 ± 4 nmol/g wet weight of tissue
- SPM concentration ([2]; kidney, 8 h post-last dose): 240 ± 52 nmol/g wet weight of tissue
- DEHSPM concentration ([2]; kidney, 24 h post-last dose): 260 ± 19 nmol/g wet weight of tissue
- PUT concentration ([2]; kidney, 24 h post-last dose): 0 ± 0 nmol/g wet weight of tissue
- SPD concentration ([2]; kidney, 24 h post-last dose): 150 ± 37 nmol/g wet weight of tissue
- SPM concentration ([2]; kidney, 24 h post-last dose): 223 ± 61 nmol/g wet weight of tissue
- DEHSPM concentration ([2]; liver, 4 h post-last dose): 148 ± 46 nmol/g wet weight of tissue
- PUT concentration ([2]; liver, 4 h post-last dose): 0 ± 0 nmol/g wet weight of tissue
- SPD concentration ([2]; liver, 4 h post-last dose): 540 ± 77 nmol/g wet weight of tissue
- SPM concentration ([2]; liver, 4 h post-last dose): 764 ± 49 nmol/g wet weight of tissue
- DEHSPM concentration ([2]; liver, 8 h post-last dose): 144 ± 7 nmol/g wet weight of tissue
- PUT concentration ([2]; liver, 8 h post-last dose): 0 ± 0 nmol/g wet weight of tissue
- SPD concentration ([2]; liver, 8 h post-last dose): 710 nmol/g wet weight of tissue and 710 ± 132 nmol/g wet weight of tissue
- SPM concentration ([2]; liver, 8 h post-last dose): 899 ± 40 nmol/g wet weight of tissue
- DEHSPM concentration ([2]; liver, 24 h post-last dose): 79 ± 10 nmol/g wet weight of tissue
- PUT concentration ([2]; liver, 24 h post-last dose): 21 ± 15 nmol/g wet weight of tissue
- SPD concentration ([2]; liver, 24 h post-last dose): 578 nmol/g wet weight of tissue and 578 ± 150 nmol/g wet weight of tissue
- SPM concentration ([2]; liver, 24 h post-last dose): 809 ± 45 nmol/g wet weight of tissue
- DEHSPM concentration ([2]; pancreas, 4 h post-last dose): 330 ± 37 nmol/g wet weight of tissue
- PUT concentration ([2]; pancreas, 4 h post-last dose): 43 ± 10 nmol/g wet weight of tissue
- SPD concentration ([2]; pancreas, 4 h post-last dose): 6054 nmol/g wet weight of tissue and 6054 ± 878 nmol/g wet weight of tissue
- SPM concentration ([2]; pancreas, 4 h post-last dose): 1000 nmol/g wet weight of tissue and 1000 ± 124 nmol/g wet weight of tissue
- DEHSPM concentration ([2]; pancreas, 8 h post-last dose): 339 ± 59 nmol/g wet weight of tissue
- PUT concentration ([2]; pancreas, 8 h post-last dose): 66 ± 33 nmol/g wet weight of tissue
- SPD concentration ([2]; pancreas, 8 h post-last dose): 5789 nmol/g wet weight of tissue and 5789 ± 339 nmol/g wet weight of tissue
- SPM concentration ([2]; pancreas, 8 h post-last dose): 1033 nmol/g wet weight of tissue and 1033 ± 290 nmol/g wet weight of tissue
- DEHSPM concentration ([2]; pancreas, 24 h post-last dose): 284 ± 50 nmol/g wet weight of tissue
- PUT concentration ([2]; pancreas, 24 h post-last dose): 62 ± 29 nmol/g wet weight of tissue
- SPD concentration ([2]; pancreas, 24 h post-last dose): 5807 nmol/g wet weight of tissue and 5807 ± 262 nmol/g wet weight of tissue
- SPM concentration ([2]; pancreas, 24 h post-last dose): 1146 nmol/g wet weight of tissue and 1146 ± 107 nmol/g wet weight of tissue
